Where two headings read alike, the source gives them in different places.
Columns and labels:
Heliothis virescens = experiment: Tobacco budworm (Heliothis virescens) diet/egg test; type: in vivo; details: for mortality at 2500 ppm: Heliothis virescens, 120 h, read-out: mortality in comparison with untreated controls
Protocol: For evaluating control of tobacco budworm (Heliothis virescens) the test unit consisted of 96-well-microtiter plates containing an insect diet and 15-25 H. virescens eggs.
The compounds were formulated using a solution containing 75% v/v water and 25% v/v DMSO. Different concentrations of formulated compounds were sprayed onto the insect diet at 10 μl, using a custom built micro atomizer, at two replications.
(§1) After application, microtiter plates were incubated at about 28±1° C. and about 80±5% relative humidity for 5 days. Egg and larval mortality was then visually assessed.
The biological activity shown tables under CB.1 and CB.2 was evaluated on scale range from 0% as showing no biological activity to 100% as having total control. The biological tests were conducted as described above.

Myzus persicae = experiment: Green peach aphid (Myzus persicae) artificial diet test; type: in vivo; details: 72 h, read-out: mortality in comparison with untreated controls
Excerpt: For evaluating control of green peach aphid (Myzus persicae) the test unit consisted of 96-well-microtiter plates containing liquid artificial diet under an artificial membrane.
The compounds were formulated using a solution containing 75% v/v water and 25% v/v DMSO. Different concentrations of formulated compounds were pipetted into the aphid diet, using a custom built pipetter, at two replications.
After application, 5-8 adult aphids were placed on the artificial membrane inside the microtiter plate wells. The aphids were then allowed to suck on the treated aphid diet and incubated at about 23±1° C. and about 50±5% relative humidity for 3 days. Aphid mortality and fecundity was then visually assessed.

Ceratitis capitata = experiment: Mediterranean fruitfly (Ceratitis capitata) diet/egg test; type: in vivo; details: 120 h, read-out: mortality in comparison with untreated controls
Protocol: For evaluating control of Mediterranean fruitfly (Ceratitis capitata) the test unit consisted of microtiter plates containing an insect diet and 50-80 C. capitata eggs.
The compounds were formulated using a solution containing 75% v/v water and 25% v/v DMSO. Different concentrations of formulated compounds were sprayed onto the insect diet at 5 nl, using a custom built micro atomizer, at two replications.
as §1

Aedes aegypti = Aedes aegypti neonate larvae motility assay; type: in vivo; details: larval motility, dose response
Protocol: Compounds formulated in 100% DMSO are tested in microtiter plates containing 180 ul 1× Luria Broth media and 10 neonate A. aegypti larvae. The efficacy of a compound is determined based on the motility of the larvae as compared to average motility of control wells containing DMSO only. A dose response assay is conducted with compounds with >80% reduction in motility in the primary assay to determine an EC50 value. Selected compounds are advanced to insecticide secondary assays.

Megoura viciae = experiment: Vetch aphid (Megoura viciae) leaf disk test; type: in vivo; details: foliar, 120 h, read-out: mortality in comparison with untreated controls
Protocol: For evaluating control of vetch aphid (Megoura viciae) through contact or systemic means the test unit consisted of 24-well-microtiter plates containing broad bean leaf disks.
The compounds were formulated using a solution containing 75% v/v water and 25% v/v DMSO. Different concentrations of formulated compounds were sprayed onto the leaf disks at 2.5 μl, using a custom built micro atomizer, at two replications.
After application, the leaf disks were air-dried and 5-8 adult aphids placed on the leaf disks inside the microtiter plate wells. The aphids were then allowed to suck on the treated leaf disks and incubated at about 23±1° C. and about 50±5% relative humidity for 5 days. Aphid mortality and fecundity was then visually assessed.

Anthonomus grandis = experiment: Boll weevil (Anthonomus grandis) diet/egg test; type: in vivo; details: 120 h, read-out: mortality in comparison with untreated controls
Protocol: For evaluating control of boll weevil (Anthonomus grandis) the test unit consisted of 24-well-microtiter plates containing an insect diet and 20-30 A. grandis eggs.
The compounds were formulated using a solution containing 75% v/v water and 25% v/v DMSO. Different concentrations of formulated compounds were sprayed onto the insect diet at 20 μl, using a custom built micro atomizer, at two replications.
After application, microtiter plates were incubated at about 23±1° C. and about 50±5% relative humidity for 5 days. Egg and larval mortality was then visually assessed.

[1] = 2500 ppm, adult aphids on treated artificial diet, 3 days
[2] = 2500 ppm, egg and larval mortality, 5 days
[3] = 2500 ppm, adult aphids on sprayed broad bean leaf disks, 5 days

Compound	mortality at 2500 ppm (Ceratitis capitata; [2]) [%]	EC50 (Aedes aegypti) [µg/mL]	mortality at 2500 ppm (Anthonomus grandis; [2]) [%]	melting point [°C]	other results
N#CC(CCC(F)(F)F)S(=O)(=O)CCC(F)(F)C(F)(F)F (stereo not shown) [CE. 1, reference compound]	–	–	–	–	activity in [%] (Heliothis virescens; 800 ppm, scale 0% no biological activity to 100% total control): 0%
CCOC(=O)C(CCSC(F)(F)F)S(=O)(=O)CCC(F)(F)C(F)(F)F (stereo not shown) [II-3, Ethyl 2-(3,3,4,4,4-Pentafluoro-butane-1-sulfonyl)-4-trifluoromethylsulfanyl-butyrate]	> 90	< 5	> 90	–	mortality at 2500 ppm (Myzus persicae; [1]): > 90%; mortality at 2500 ppm (Megoura viciae; [3]): > 90%
CCOC(=O)C(C)(CCSC(F)(F)F)S(=O)(=O)CCC(F)(F)C(F)(F)F (stereo not shown) [II-4, Ethyl 2-methyl-2-(3,3,4,4,4-pentafluoro-butane-1-sulfonyl)-4-trifluoromethylsulfanyl-butyrate]	> 90	< 5	> 90	–	mortality at 2500 ppm (Myzus persicae; [1]): > 90%; mortality at 2500 ppm (Megoura viciae; [3]): > 90%
N#CC(CCSC(F)(F)F)S(=O)(=O)Cc1cccc(C(F)(F)F)c1 (stereo not shown) [II-5, 2-(3-Trifluoromethyl-phenylmethanesulfonyl)-4-trifluoromethylsulfanyl-butyronitrile]	–	< 5	–	100 to 102	–
CC(C#N)(CCSC(F)(F)F)S(=O)(=O)Cc1cccc(C(F)(F)F)c1 (stereo not shown) [II-6, 2-Methyl-2-(3-trifluoromethyl-phenylmethanesulfonyl)-4-trifluoromethylsulfanyl-butyronitrile]	–	< 5	–	92 to 94	–
N#CC(CCSC(F)(F)F)S(=O)(=O)Cc1ccc(Cl)nc1 (stereo not shown) [II-7, 2-(6-Chloro-pyridin-3-ylmethanesulfonyl)-4-trifluoromethylsulfanyl-butyronitrile]	–	–	–	122 to 124	–
N#CC(CCSC(F)(F)F)S(=O)(=O)Cc1ccc(C(F)(F)F)nc1 (stereo not shown) [II-9, 2-(6-Trifluoromethyl-pyridin-3-ylmethanesulfonyl)-4-trifluoromethylsulfanyl-butyronitrile]	–	–	–	129 to 130	–
CC(C#N)(CCSC(F)(F)F)S(=O)(=O)Cc1ccc(C(F)(F)F)nc1 (stereo not shown) [II-10, 2-Methyl-2-(6-trifluoromethyl-pyridin-3-ylmethanesulfonyl)-4-trifluoromethylsulfanyl-butyronitrile]	–	–	–	109 to 110	–
N#CC(CCSC(F)(F)F)S(=O)(=O)Cc1ccc(C(F)(F)F)cc1 (stereo not shown) [II-11, 2-(4-Trifluoromethyl-phenylmethanesulfonyl)-4-trifluoromethylsulfanyl-butyronitrile]	–	–	–	153 to 155	–
CC(C#N)(CCSC(F)(F)F)S(=O)(=O)Cc1ccc(C(F)(F)F)cc1 (stereo not shown) [II-12, 2-Methyl-2-(4-trifluoromethyl-phenylmethanesulfonyl)-4-trifluoromethylsulfanyl-butyronitrile]	–	–	–	102 to 104	–
N#CC(CCSC(F)(F)F)S(=O)(=O)Cn1ccc(C(F)(F)F)n1 (stereo not shown) [II-13, 2-(3-Trifluoromethyl-pyrazol-1-ylmethanesulfonyl)-4-trifluoromethylsulfanyl-butyronitrile]	–	–	–	65 to 67	–
CC(C#N)(CCSC(F)(F)F)S(=O)(=O)Cn1ccc(C(F)(F)F)n1 (stereo not shown) [II-14, 2-Methyl-2-(3-trifluoromethyl-pyrazol-1-ylmethanesulfonyl)-4-trifluoromethylsulfanyl-butyronitrile]	> 90	–	> 90	–	–
N#CC(CCSC(F)(F)F)SCCC(F)(F)C(F)(F)F (stereo not shown) [II-15, 2-(3,3,4,4,4-Pentafluoro-butylsulfanyl)-4-trifluoromethylsulfanyl-butyronitrile]	> 90	< 5	> 90	–	mortality at 2500 ppm (Heliothis virescens; [2]): > 90%; mortality at 2500 ppm (Myzus persicae; [1]): > 90%; mortality at 2500 ppm (Megoura viciae; [3]): > 90%
N#CC(CCSC(F)(F)F)[S+]([O-])CCC(F)(F)C(F)(F)F (stereo not shown) [II-16, 2-(3,3,4,4,4-Pentafluoro-butane-1-sulfinyl)-4-trifluoromethylsulfanyl-butyronitrile]	> 90	–	> 90	–	mortality at 2500 ppm (Myzus persicae; [1]): > 90%; mortality at 2500 ppm (Megoura viciae; [3]): > 90%
CCC(C#N)(CCSC(F)(F)F)S(=O)(=O)CCC(F)(F)C(F)(F)F (stereo not shown) [II-17, 2-Ethyl-2-(3,3,4,4,4-pentafluoro-butane-1-sulfonyl)-4-trifluoromethylsulfanyl-butyronitrile]	> 90	< 5	> 90	–	mortality at 2500 ppm (Heliothis virescens; [2]): > 90%; mortality at 2500 ppm (Myzus persicae; [1]): > 90%
CCCC(C#N)(CCSC(F)(F)F)S(=O)(=O)CCC(F)(F)C(F)(F)F (stereo not shown) [II-18, 2-(3,3,4,4,4-Pentafluoro-butane-1-sulfonyl)-2-(2-trifluoromethylsulfanyl-ethyl)-pentanenitrile]	> 90	< 5	> 90	–	–
CC(CCSC(F)(F)F)(C(=O)O)S(=O)(=O)CCC(F)(F)C(F)(F)F (stereo not shown) [II-19, 2-Methyl-2-(3,3,4,4,4-pentafluoro-butane-1-sulfonyl)-4-trifluoromethylsulfanyl-butyric acid]	–	–	> 90	–	mortality at 2500 ppm (Megoura viciae; [3]): > 90%
CC(CCSC(F)(F)F)(C(N)=O)S(=O)(=O)CCC(F)(F)C(F)(F)F (stereo not shown) [II-20, 2-Methyl-2-(3,3,4,4,4-pentafluoro-butane-1-sulfonyl)-4-trifluoromethylsulfanyl-butyramide]	> 90	–	> 90	–	–
CNC(=O)C(C)(CCSC(F)(F)F)S(=O)(=O)CCC(F)(F)C(F)(F)F (stereo not shown) [II-21, 2,N-Dimethyl-2-(3,3,4,4,4-pentafluoro-butane-1-sulfonyl)-4-trifluoromethylsulfanyl-butyramide]	> 90	–	> 90	–	–
CN(C)C(=O)C(C)(CCSC(F)(F)F)S(=O)(=O)CCC(F)(F)C(F)(F)F (stereo not shown) [II-22, 2,N,N-Trimethyl-2-(3,3,4,4,4-pentafluoro-butane-1-sulfonyl)-4-trifluoromethylsulfanyl-butyramide]	> 90	< 5	> 90	–	mortality at 2500 ppm (Myzus persicae; [1]): > 90%; mortality at 2500 ppm (Megoura viciae; [3]): > 90%
CC(CCSC(F)(F)F)(C(N)=S)S(=O)(=O)CCC(F)(F)C(F)(F)F (stereo not shown) [II-23, 2-Methyl-2-(3,3,4,4,4-pentafluoro-butane-1-sulfonyl)-4-trifluoromethylsulfanyl-thiobutyramide]	> 90	–	> 90	–	mortality at 2500 ppm (Heliothis virescens; [2]): > 90%
N#CC(CCSC(F)(F)F)S(=O)(=O)CCC(F)(F)C(F)(F)C(F)(F)F (stereo not shown) [II-24, 2-(3,3,4,4,5,5,5-Heptafluoro-pentane-1-sulfonyl)-4-trifluoromethylsulfanyl-butyronitrile]	–	–	–	–	mortality at 2500 ppm (Myzus persicae): > 90%; mortality at 2500 ppm (Megoura viciae): > 90%; mortality at 2500 ppm (Anthonomus grandis): > 90%
CC(C#N)(CCSC(F)(F)F)S(=O)(=O)CCC(F)(F)C(F)(F)C(F)(F)F (stereo not shown) [II-25, 2-(3,3,4,4,5,5,5-Heptafluoro-pentane-1-sulfonyl)-2-methyl-4-trifluoromethylsulfanyl-butyronitrile]	–	–	–	–	mortality at 2500 ppm (Heliothis virescens): > 90%; mortality at 2500 ppm (Myzus persicae): > 90%; mortality at 2500 ppm (Ceratitis capitata): > 90%; mortality at 2500 ppm (Megoura viciae): > 90%; mortality at 2500 ppm (Anthonomus grandis): > 90%
CC(C#N)(CCSC(F)(F)F)S(=O)(=O)CCSC(F)(F)F (stereo not shown) [II-26, 2-Methyl-4-trifluoromethylsulfanyl-2-(2-trifluoromethylsulfanyl-ethanesulfonyl)-butyronitrile]	–	–	> 90	–	–
